Counter-ions that a name gives are not always drawn.
Biological target: T1, Human M4 (Homo sapiens, UniProt P08173)
T1 sequence (P08173 1-479): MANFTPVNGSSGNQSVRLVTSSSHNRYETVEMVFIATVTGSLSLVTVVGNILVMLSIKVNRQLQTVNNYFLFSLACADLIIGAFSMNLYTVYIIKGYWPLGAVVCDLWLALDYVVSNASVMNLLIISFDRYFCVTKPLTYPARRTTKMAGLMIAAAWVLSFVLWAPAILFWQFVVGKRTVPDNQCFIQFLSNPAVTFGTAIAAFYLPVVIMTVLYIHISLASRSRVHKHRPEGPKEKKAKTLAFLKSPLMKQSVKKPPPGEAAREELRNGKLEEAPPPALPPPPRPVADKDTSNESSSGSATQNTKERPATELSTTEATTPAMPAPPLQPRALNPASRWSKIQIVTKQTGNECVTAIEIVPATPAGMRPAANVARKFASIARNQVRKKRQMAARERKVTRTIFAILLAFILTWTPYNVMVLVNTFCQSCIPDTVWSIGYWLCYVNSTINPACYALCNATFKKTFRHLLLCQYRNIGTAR
Test: mAChR M4 cell-based functional assay (calcium flux, potentiation of EC20 acetylcholine response)
Set-up: Emax: dose or concentration left out as unconfirmed

Row | Compound | EC50 [nM] | Emax [%]
1 | Cc1cc(C)c2c(n1)sc1c(N3CCCC3)nccc12 [Compound 2, 2,4-dimethyl-8-(pyrrolidin-1-yl)thieno[2,3-b:5,4-c′]dipyridine] | 233 | 97.8
2 | Cc1cc(C)c2c(n1)sc1c(NC3CCC3)nccc12 [Compound 3, N-cyclobutyl-2,4-dimethylthieno[2,3-b:5,4-c′]dipyridin-8-amine dihydrochloride] | 84.9 | 89.8
3 | Cc1cc(C)c2c(n1)sc1c(N(C)C)nccc12 [Compound 4, N,N,2,4-tetramethylthieno[2,3-b:5,4-c′]dipyridin-8-amine] | 202 | 81.9
4 | Cc1nnc2sc3c(N4CCCC4)nccc3c2c1C [Compound 6, 3,4-dimethyl-8-pyrrolidin-1-yl-pyrido[4′,3′:4,5]thieno[2,3-c]pyridazine hydrochloride] | 23.6 | 73
5 | Cc1nnc2sc3c(NC4CCC4)nccc3c2c1C [Compound 7, N-cyclobutyl-3,4-dimethyl-pyrido[4′,3′:4,5]thieno[2,3-c]pyridazin-8-amine hydrochloride] | 59.8 | 80.2
6 | COc1ccc(CNc2nccc3c2sc2nnc(C)c(C)c23)cc1 [Compound 9, N-[(4-methoxyphenyl)methyl]-3,4-dimethyl-pyrido[4′,3′:4,5]thieno[2,3-c]pyridazin-8-amine hydrochloride] | – | 76.8
7 | Cc1nnc2sc3c(NC4CN(c5ncc(C(F)(F)F)cn5)C4)nccc3c2c1C [Compound 10, 3,4-dimethyl-N-[1-[5-(trifluoromethyl)pyrimidin-2-yl]azetidin-3-yl]pyrido[4′,3′:4,5]thieno[2,3-c]pyridazin-8-amine hydrochloride] | 67.1 | 74.4
8 | Cc1nnc2sc3c(NCc4ccc(OC(F)(F)F)cc4)nccc3c2c1C [Compound 11, 3,4-dimethyl-N-[[4-(trifluoromethoxy)phenyl]methyl] pyrido[4′,3′:4,5]thieno[2,3-c]pyridazin-8-amine hydrochloride] | 1030 | 72.8
9 | Cc1nnc2sc3c(NC4CN(c5ncc(F)cn5)C4)nccc3c2c1C [Compound 12, N-[1-(5-fluoropyrimidin-2-yl)azetidin-3-yl]-3,4-dimethyl-pyrido[4′,3′:4,5]thieno[2,3-c]pyridazin-8-amine hydrochloride] | 18.2 | 77.4
10 | COc1ccc(CNc2nccc3c2sc2nnc(C)c(C)c23)cc1F [Compound 14, N-[(3-fluoro-4-methoxy-phenyl)methyl]-3,4-dimethylpyrido[4′,3′:4,5]thieno[2,3-c]pyridazin-8-amine hydrochloride] | 14.3 | 91.3
11 | Cc1nnc2sc3c(NCc4ccc(F)c(F)c4)nccc3c2c1C [Compound 16, N-[(3,4-difluorophenyl)methyl]-3,4-dimethyl-pyrido[4′,3′:4,5]thieno[2,3-c]pyridazin-8-amine hydrochloride] | 194 | 81.5
12 | Cc1nnc2sc3c(NCc4ccc(C(F)(F)F)c(F)c4)nccc3c2c1C [Compound 17, N-[[3-fluoro-4-(trifluoromethyl)phenyl]methyl]-3,4-dimethyl-pyrido[4′,3′:4,5]thieno[2,3-c]pyridazin-8-amine hydrochloride] | 1720 | 66.6
13 | Cc1nnc2sc3c(NCc4ccc(OCC5CC5)c(F)c4)nccc3c2c1C [Compound 18, N-[[4-(cyclopropylmethoxy)-3-fluoro-phenyl]methyl]-3,4-dimethyl-pyrido[4′,3′:4,5]thieno[2,3-c]pyridazin-8-amine hydrochloride] | 679 | 88.6
14 | Cc1nnc2sc3c(N4CCCC4)ncc(Cl)c3c2c1C [Compound 23, 5-Chloro-3,4-dimethyl-8-pyrrolidin-1-yl-pyrido[4′,3′:4,5]thieno[2,3-c]pyridazine Hydrochloride] | 351 | 36.5
15 | COc1ccc(CNc2nccc3c2sc2nc(C)cc(C)c23)cc1F [Compound 25, N-(3-fluoro-4-methoxybenzyl)-2,4-dimethylthieno[2,3-b:5,4-c′]dipyridin-8-amine] | > 10000 | 90.3
16 | Cc1cc(C)c2c(n1)sc1c(NCc3ccc(C(C)(C)O)cc3)nccc12 [Compound 26, 2-(4-(((2,4-dimethylthieno[2,3-b:5,4-c′]dipyridin-8-yl)amino)methyl)phenyl)propan-2-ol] | 327 | 101
17 | Cc1cc(C)c2c(n1)sc1c(NCc3ccc(C(C)(C)O)cc3F)nccc12 [Compound 27, 2-(4-(((2,4-dimethylthieno[2,3-b:5,4-c′]dipyridin-8-yl)amino)methyl)-3-fluorophenyl)propan-2-ol] | 1100 | 102
18 | COc1ccc(CNc2nccc3c2sc2nc(C)c(Cl)c(C)c23)cc1 [Compound 28, 3-Chloro-N-(4-methoxybenzyl)-2,4-dimethylthieno[2,3-b:5,4-c′]dipyridin-8-amine] | 4970 | 60.8
19 | Cc1nc2sc3c(NCc4ccc(C(C)(C)O)cc4)nccc3c2c(C)c1Cl [Compound 29, 2-(4-(((3-chloro-2,4-dimethylthieno[2,3-b:5,4-c′]dipyridin-8-yl)amino)methyl)phenyl)propan-2-ol] | 1540 | 72.9
20 | Cc1nc2sc3c(N4CCCC4)nccc3c2c(C)c1Cl [Compound 30, 3-chloro-2,4-dimethyl-8-(pyrrolidin-1-yl)thieno[2,3-b:5,4-c′]dipyridine] | 714 | 79.5
21 | Cc1nc2sc3c(NCc4ccc(C(C)(C)O)c(F)c4)nccc3c2c(C)c1Cl [Compound 31, 2-(4-(((3-chloro-2,4-dimethylthieno[2,3-b:5,4-c′]dipyridin-8-yl)amino)methyl)-2-fluorophenyl)propan-2-ol] | 2630 | 76.6

Further molecules by falling EC50, results first:

Row | EC50 [nM] | Emax [%] | Compound
22 | 164 | 74.2 | Cc1nnc2sc3c(NC4CN(c5ccc(F)c(F)c5)C4)nccc3c2c1C [Compound 19, N-[1-(3,4-difluorophenyl)azetidin-3-yl]-3,4-dimethyl-pyrido[4′,3′:4,5]thieno[2,3-c]pyridazin-8-amine hydrochloride]
23 | 150 | 80.1 | Cc1cc(C)c2c(n1)sc1c(NC3CN(c4ncc(C(F)(F)F)cn4)C3)nccc12 [Compound 24, 2,4-dimethyl-N-(1-(5-(trifluoromethyl)pyrimidin-2-yl)azetidin-3-yl)thieno[2,3-b:5,4-c′]dipyridin-8-amine]
24 | 124 | 67 | Cc1cc(C)c2c(n1)sc1c(NC3CCCC3)nccc12 [Compound 1, N-cyclopentyl-2,4-dimethylthieno[2,3-b: 5,4-c]dipyridin-8-amine]
25 | 78.9 | 80 | Cc1nnc2sc3c(NCc4ccc(C(C)(C)O)cc4F)nccc3c2c1C [Compound 21, 2-[4-[[(3,4-dimethylpyrido[4′,3′:4,5]thieno[2,3-c]pyridazin-8-yl)amino]methyl]-3-fluoro-phenyl]propan-2-ol]
26 | 66 | 81.9 | Cc1nnc2sc3c(NCc4ccc(C(=O)N5CCOCC5)cc4)nccc3c2c1C [Compound 13, [4-[[(3,4-dimethylpyrido[4′,3′:4,5]thieno[2,3-c]pyridazin-8-yl)amino]methyl]phenyl]-morpholino-methanone]
27 | 58.1 | 77.5 | COc1ccc(CNc2nccc3c2sc2nnc(Cl)c(C)c23)cc1 [Compound 32, 3-chloro-N-(4-methoxybenzyl)-4-methylpyrido[4′,3′:4,5]thieno[2,3-c]pyridazin-8-amine]
28 | 53.9 | 85.3 | Cc1c(Cl)nnc2sc3c(NC4CN(c5ncc(C(F)(F)F)cn5)C4)nccc3c12 [Compound 33, 3-chloro-4-methyl-N-(1-(5-(trifluoromethyl)pyrimidin-2-yl)azetidin-3-yl)pyrido[4′,3′:4,5]thieno[2,3-c]pyridazin-8-amine, 2,2,2-trifluoroacetic acid salt]
29 | 39.6 | 85.6 | Cc1nnc2sc3c(NCc4ccc(C(C)(C)O)c(F)c4)nccc3c2c1C [Compound 20, 2-[4-[[(3,4-dimethylpyrido[4′,3′:4,5]thieno[2,3-c]pyridazin-8-yl)amino]methyl]-2-fluoro-phenyl]propan-2-ol]
30 | 34.3 | 97.4 | Cc1nnc2sc3c(NCc4ccc(C(C)(C)O)cc4)nccc3c2c1C [Compound 15, 2-[4-[[(3,4-dimethylpyrido[4′,3′:4,5]thieno[2,3-c]pyridazin-8-yl)amino]lmethyl]phenyl]propan-2-ol]
31 | 23.6 | 91.4 | Cc1c(Cl)nnc2sc3c(NC4CCC4)nccc3c12 [Compound 34, 3-chloro-N-cyclobutyl-4-methylpyrido[4′,3′:4,5]thieno[2,3-c]pyridazin-8-amine]
32 | 16.9 | 117 | Cc1nnc2sc3c(NC4CN(c5ccc(C#N)cn5)C4)nccc3c2c1C [Compound 22, 6-[3-[(3,4-dimethylpyrido[4′,3′:4,5]thieno[2,3-c]pyridazin-8-yl)amino]azetidin-1-yl]pyridine-3-carbonitrile]
33 | 12.3 | 80.3 | Cc1nnc2sc3c(NC4CCCC4)nccc3c2c1C [Compound 5, N-Cyclopentyl-3,4-dimethyl-pyrido[4′,3′:4,5]thieno[2,3-c]pyridazin-8-amine Hydrochloride]
34 | 12.1 | 74.8 | Cc1nnc2sc3c(NC4CC4)nccc3c2c1C [Compound 8, N-cyclopropyl-3,4-dimethyl-pyrido[4′,3′:4,5]thieno[2,3-c]pyridazin-8-amine hydrochloride]

Source: patent publication US10927126B2, “Positive allosteric modulators of the muscarinic acetylcholine receptor M4” (Vanderbilt University, priority 2016, dated 2021)
